# Results published in patent publication US5624959A, “Naphthyloxyacetic acid” (Ono Pharmaceutical Co., Ltd., priority 1993, dated 1997).
# Target: T1, prostanoide receptor subtype (mouse EP3a) (Mus musculus, UniProt P30557)
# T1 construct: expressed in transfected cells
# T1 sequence (P30557 1-365): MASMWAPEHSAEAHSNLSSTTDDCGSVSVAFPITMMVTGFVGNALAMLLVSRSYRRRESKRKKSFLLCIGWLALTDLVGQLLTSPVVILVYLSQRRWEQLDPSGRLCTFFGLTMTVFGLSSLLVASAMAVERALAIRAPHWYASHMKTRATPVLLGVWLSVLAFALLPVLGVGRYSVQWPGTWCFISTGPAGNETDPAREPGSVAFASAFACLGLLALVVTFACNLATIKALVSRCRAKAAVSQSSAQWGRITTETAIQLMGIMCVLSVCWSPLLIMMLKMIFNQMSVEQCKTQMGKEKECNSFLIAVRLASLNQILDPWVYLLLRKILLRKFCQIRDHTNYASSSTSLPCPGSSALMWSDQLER
# Experiment: Binding assay using expression cell of prostanoide receptor subtype ([3H]PGE2 competition, membrane fraction)
# Conditions: mouse EP3a membrane fraction (0.5 mg/ml); [3H]-PGE2 2.5 nM; pH 6.0; 1 hour at room temperature; Ki=IC50/(1+([c]/Kd)); read-out: Ki (dissociation constant)
# Procedure: (i) Binding assay using expression cell of prostanoide receptor subtype
# The preparation of membrane fraction was carried out according to the method of Sugimoto et al [J. Biol. Chem. 267, 6463-6466(1992)], using prostanoide receptor subtype (mouse EP3a).
# The standard assay mixture containing a membrane fraction (0.5 mg/ml), [^3 H]PGE2 in a final volume of […] was incubated for 1 hour at room temperature. The reaction was terminated by the addition of 3 ml of ice-cooled buffer. The mixture was rapidly filtered through a Whatman GF/B glass filter. The radioactivity associated with the filter was measured in ACS II (Amarsham) by liquid scintillation counting.
# Kd and Bmax values were determined from Scatchard plots [Ann. N.Y. Acad. Sci., 51,660(1949)]. Non-specific binding was calculated as the bond in the presence of an excess (2.5 mM) of unlabeled PGE2. In the experiment for competition of specific [^3 H]-PGE2 binding by the compounds of the present invention, [^3 H]-PGE2 was added at a concentration of 2.5 nM and the compounds of the present invention were at a concentration of 1 mM.
# The following buffer was used in all reactions. Buffer: 10 mM potassium phosphate (pH 6.0), 1 mM EDTA, 10 mM MgCl2, 0.1 M NaCl
# The dissociation constant (Ki) of each compound was calculated by the following equation.
row,Structure (SMILES),Ki [nM]
1,"O=C(O)COc1cccc2c3c(ccc12)CCC(NS(=O)(=O)/C=C/c1ccccc1)C3 (stereo not shown) [Example 3(ff), 6-[(2-phenylvinyl)sulfonylamino]-5,6,7,8-tetrahydrophenanthrene-1-yl-oxyacetic acid]",2.5
2,"O=C(O)COc1cccc2cc(CCNS(=O)(=O)/C=C/c3ccccc3)ccc12 [Example 3(h), 6-[2-[(2-phenylvinyl)sulfonylamino]ethyl]naphthyloxyacetic acid]",37
3,"O=C(O)COc1cccc2c(CCNS(=O)(=O)CCc3ccccc3)cccc12 [Example 3(w), 5-[2-[(2-phenylethyl)sulfonylamino]ethyl]naphthyloxyacetic acid]",28
4,O=C(O)COc1cccc2c(CCNS(=O)(=O)/C=C/c3ccccc3)cccc12 [Example 3(g)],7
5,"O=C(O)COc1cccc2c1CCCC2NS(=O)(=O)c1ccc2ccccc2c1 (stereo not shown) [Example 3(q), 5-(naphth-2-yl-sulfonylamino)-5,6,7,8-tetrahydronaphthyloxyacetic acid]",320
6,"O=C(O)COc1cccc2c1CCC=C2CCNS(=O)(=O)/C=C/c1ccccc1 [Example 3(aa), 5-[2-[(2-phenylvinyl)sulfonylamino]ethyl]-7,8-dihydronaphthyloxyacetic acid]",7.9

# The next lines start with the values.
row,Ki [nM],Structure (SMILES)
1,7.5,O=C(O)COc1cccc2c(CCS(=O)(=O)NCC(c3ccccc3)c3ccccc3)cccc12 [Example 6(f)]
2,36,"O=C(O)COc1cccc2c1CCCC2NS(=O)(=O)C=C(c1ccccc1)c1ccccc1 (stereo not shown) [Example 3(p), 5-[(2,2-diphenylvinyl)sulfonylamino]-5,6,7,8-tetrahydronaphthyloxyacetic acid]"
3,17,"O=C(O)COc1cccc2c(NS(=O)(=O)CCc3ccccc3)cccc12 [Example 3(v), 5-[(2-phenylethyl)sulfonylamino]naphthyloxyacetic acid]"
4,37,"O=C(O)COc1cccc2c(NS(=O)(=O)C=C(c3ccccc3)c3ccccc3)cccc12 [Example 3(i), 5-[(2,2-diphenylvinyl)sulfonylamino]naphthyloxyacetic acid]"
